# Like-named read-outs stand apart in the source and are kept apart here.
# Key:
# [1] = test system: Plasmodium berghei; assay: Therapeutic index in mice; format: in vivo, P. berghei; settings: ratio of LD50 to CPD50, mice, i.v.
# From the text: The therapeutic index is defined as the ratio of the toxicity, expressed as LD50, to the therapeutic activity, expressed as CPD50, in mice.
# ^b : The therapeutic index (TI) is the ratio of LD50 to […]
# [2] = test system: human erythrocytes; settings: for Concentration combined with erythrocytes (% initial concentration): human red cells 10^9/ml, 100 μg/ml
# Experimental: Fresh human blood (A+) on CPDA is washed twice in RPMI medium containing 20 mM glucose at pH 7.4, and then resuspended in the same medium at 37° C. to obtain a 20% suspension of red cells (2×10^9 erythrocytes/ml). To 1 ml of this suspension, 1 ml of a solution of PQ or derivatives at a concentration of 0.250 mM in the same medium at 37° C. is added.
# After different incubation times at 37° C., 0.5 ml of sample is withdrawn and then transferred to an Eppendorf tube containing 0.4 ml of silicone oil (Merck, density 1.06 g/ml).
# After centrifugation for 30 seconds at 12,000 g, the supernatant and the silicone oil are removed, while the cells in the pellet are lyzed by adding 0.5 ml of water. The quinoline compound present in combination with the cell lysate is then extracted by precipitation of the cell proteins with acetonitrile (0.5 ml) and thereafter analyzed by HPLC under the standard conditions.
# The intracellular concentration of quinoline derivative is obtained by subtracting the concentration of compound present in the extracellular medium from the total concentration in the cell lysate. The contaminating extracellular volume is measured using tritiated inulin.
# [3] = test system: human red cells; assay: Methemoglobin production in human red cells; format: cell-based; settings: 1 hour, 37° C.
# Experimental: (§10) Two important toxic effects of PQ were assessed on the two derivatives: the hemolytic effect and the conversion of hemoglobin to methemoglobin.
# (§11) A+ blood is washed twice in 0.15M phosphatebuffered saline at pH 7.4 containing 20 mM glucose (GPBS), and then resuspended at a concentration of 50% in the same buffer. To this suspension, an equal volume of compound dissolved in GPBS at different concentrations (test), or of GPBS (control) is added. The final hematocrit of the suspension is 25%. After 60 minutes' incubation at 37° C., the concentration of hemoglobin and methemoglobin is determined on the total suspension, and the concentration of hemoglobin present in the supernatant after centrifugation (extracellular hemoglobin) is determined, by the cyanmethemoglobin and benzidine methods (Fairbanks V.F., 1976, in "Fundamentals of Clinical Chemistry, M.W. Tietz Editors, Saunders").
# [4] = Hydrolysis in the presence of lysosomal enzymes; format: in vitro ADME, rat; settings: rat, liver lysosomal enzymes, pH 4.5, 37° C., read-out: Relative concentration of compound (% of initial concentration)
# Experimental: (§1) The compounds, at a final concentration of 15 μg/ml, are incubated in 50 mM acetate buffer, pH 4.5, at 37° C. in the presence of 5 mM cysteine and a lysosomal enzyme fraction (0.15 mg protein/ml) purified from rat liver.
# (§2) The purified lysosomal fraction is prepared according to the method described by Trouet (1974, Meth. Enzymol., 31, 323-334).
# (§3) At intervals of time, corresponding samples are taken from the incubation. The enzyme reaction is stopped by adding 10 μl of 10M HCl per ml of sample. A volume of 20 μl is withdrawn and analyzed directly by HPLC under the standard conditions.
# (§4) ^a : The compounds are incubated at pH 4.5 in the presence of
# (§5) lysosomal enzymes (0.15 mg protein/ml) and 5 mM cysteine, and then
# (§6) analyzed by spectrophotometry after HPLC. The initial purity of the
# (§7) ^b : The results represent the relative concentration of primaquine
# (§8) (PQ) and derivatives (PQX) in terms of the incubation time, expressed as
# (§9) percentage of the initial concentration (time 0) after extraction.
# [5] = test system: lysosomal enzymes; assay: Hydrolysis in the presence of lysosomal enzymes; format: in vitro ADME, rat; settings: pH 4.5, 37° C., 0 h
# Experimental: as §1, §2, §3, §4, §5, §6, §7, §8, §9
# [6] = Hemolytic effect on human red cells; format: cell-based; settings: human, red cells, pH 7.4, 1 hour, 37° C., read-out: Hemolysis (% of total hemoglobin concentration)
# Experimental: as §10, §11
# [7] = test system: Plasmodium berghei; assay: Causal prophylactic activity on OF1 mice infected with Plasmodium berghei; format: in vivo, P. berghei (ANKA), in Swiss OF1 mice
# Experimental: Primaquine and its derivatives are tested in the model of malaria in rodents employing the infection of mice with Plasmodium berghei, the sporozoites originating from infected Anopheles stephensi mosquitoes. This model, developed by Most H., Herman R. & Schoenfeld C. (1967), Am. J. Trop. med. Hyg. 16, 572-575, enables the casual prophylatic (tissue schizonticidal) activity of new therapeutic compounds to be determined.
# The procedure used is that derived from Most H. & Montuori W.A. (1975), Am. J. Trop. Med. Hyg. 24, 179-189. It involves the system P. berghei (ANKA)/Anopheles stephensi/Swiss OF1 mice. The ANKA strain of P. b. berghei is maintained cyclically on Anopheles stephensi. The Swiss OF1 strain mouse is especially sensitive to P. b. berghei, which produces an invariably fatal infection.
# The legs, wings and abdomen are removed from female mosquitoes (80 to 100 individuals per preparation) and the latter are then homogenized at 4° C. in MEM medium (GIBCO) containing 10% of fetal calf serum using a glass Potter. The sporozoite suspension is then purified from the mosquito debris by two successive centrifugations (2 min at 50 g and 5 min at 200 g) and the collected supernatant is stored at 4° C. After counting in a Petroff-Hausser chamber, the number of parasites is adjusted by dilution with the same cold medium to a density of 2×10^5 sporozoites/ml.
# The causal prophylactic activity of the compounds, that is to say the dose enabling 50% of the infected animals to be cured (CPD50) is obtained by analysis of the logits of the response (expressed as a % LTS) as a function of the dose (mg PQ/kg).
# A volume of 0.5 ml of the suspension containing 10^5 sporozoites is injected i.v. into female Swiss OF1 mice weighing 20 to 25 g, used for the therapeutic tests. 1.2. Chemotherapeutic treatments
# Groups of 20 to 25 mice, infected as described above, are treated with a single intravenous injection of primaquine diphosphate (PQ) or of its two derivatives in hydrochloride form, three hours after inoculation of the sporozoites. The volume injected is adjusted according to the weight of the mouse, on the basis of 0.25 ml for a weight of 25 g. The compounds are diluted in phosphatebuffered saline (PBS), pH 7.0, and the pH is adjusted to 7.0. Infected but untreated mice (5 per group), receive the buffer alone and serve to monitor the infectivity of the sporozoites.
# The experimental mice are kept for a period of 50 days. The development of the parasitemia is followed by daily examination of blood smears stained for 60 min with 5% Giemsa in Sorensen buffer at pH 7.2, from day 5 up to day 15. The number of infected animals can thus be determined.
# The animals infected using P. berchei sporozoites are treated three hours later with a single i.v. injection of the compounds. This test enables the casual prophylactic activity of the compounds, that is the dose enabling 50% of the infected animals to be cured (CPD50), to be defined. The dose is always expressed as mg of PQ diphosphate per kg.
# The animals infected using P. berghei sporozoites are treated three hours later with a single i.v. injection of the compounds. This test enables the casual prophylactic activity of the compounds, that is the dose enabling 50% of the infected animals to be cured (CPD50), to be defined. The dose is always expressed as mg of PQ diphosphate per kg.
# [8] = single i.v. three hours after sporozoites, mg PQ diphosphate equivalent/kg
smiles,measurement,setting,value
"COc1cc(NC(C)CCCN)c2ncccc2c1 (stereo not shown) [Primaquine, 6-methoxy-8-(4-amino-1-methylbutylamino)quinoline, reference compound]",Therapeutic index (TI),[1],1.7
same,Time for which concentration in red cells is maintained,[2],at least one hour
same,Concentration combined with erythrocytes (% initial concentration),[2]; 5 min,17.7 (1.2) %
same,Concentration combined with erythrocytes (% initial concentration),"[2]; 5 min, listed as PQ",18%
same,Concentration combined with erythrocytes (% initial concentration),[2]; 10 min,18.0 (3.4) %
same,Concentration combined with erythrocytes (% initial concentration),[2]; 60 min,18.8 (0.2) %
same,Accumulation in erythrocytes,[2]; not told,taken up rapidly by erythrocytes
same,Methemoglobin (% of total hemoglobin concentration),[3]; 1 mM,1.2 (0.5) %
same,Methemoglobin (% of total hemoglobin concentration),[3]; 2 mM,3.4 (1.8) %
same,Methemoglobin (% of total hemoglobin concentration),[3]; 5 mM,5.8 (0.2) %
same,Methemoglobin (% of total hemoglobin concentration),[3]; 10 mM,11.5 (4.2) %
same,Methemoglobin (% of total hemoglobin concentration),"[3]; 10 mM, listed as PQ",11.5%
same,remaining at 1 h,[4]; 1 h,94%
same,remaining at 2 h,[4]; 2 h,96%
same,remaining at 3 h,[4]; 3 h,84%
same,remaining at 6 h,[4]; 6 h,87%
same,remaining at 24 h,[4]; 24 h,68%
same,Relative concentration of compound (% of initial concentration),[5],100%
same,"hemolysis at 1 h, 1000 µM",[6]; 1 mM,2.1%
same,"hemolysis at 1 h, 2000 µM",[6]; 2 mM,2.3%
same,"hemolysis at 1 h, 5000 µM",[6]; 5 mM,2.8%
same,"hemolysis at 1 h, 10000 µM",[6]; 10 mM,4.7%
same,ED50,"[7]; Plasmodium berghei, iv, 3 h, read-out: CPD50, causal prophylactic dose curing 50% of the infected and treated animals",18.8 mg/kg
same,ED100,"[7]; Plasmodium berghei, iv, 3 h, read-out: ED100, totally curative dose",~54 mg/kg
same,minimal effective dose,"[7]; Plasmodium berghei, iv, 3 h, read-out: Minimal effective dose (MED)",6.5 mg/kg
same,PQ index,[7]; ratio CPD50 of PQ/CPD50 of the compound,1.00
same,"CPD50, causal prophylactic dose curing 50% of the infected and treated animals",[7]; [8],18.8 (1.3) mg/kg
same,"ED100, totally curative dose",[7]; [8],TOX
